Test results as given in EP4282435A1, “FORMULATIONS OF ACTIVE PHARMACEUTICAL INGREDIENTS AND EXCIPIENTS IN ICELLS VIA HYDROPHOBIC ION PAIRING” (Danmarks Tekniske Universitet, priority 2022, dated 2023).
Where two headings read alike, the source gives them in different places.

Key:
[1] = From the text: The chloroform phase was isolated, transferred to a new vial and subsequently chloroform was dried under a gentle flow of nitrogen.
[2] = HIP complexation efficacy of clindamycin (UHPLC of organic phase); format: physicochemical; details: percentage of clindamycin complexed with the named co-ion, 1:1 charge ratio
Procedure: HIP complexation via Bligh-Dyer method: […] Moreover, chloroform and methanol were mixed before the addition of the aqueous clindamycin solution. […] The dried complex was re-suspended in methanol and analyzed by UHPLC to determine the amount of clindamycin. HIP complexation via modified Bligh-Dyer method: […] Next, 4 mL of chloroform were added and the resulting monophase was shaken at 400 rpm at room temperature for 30 min. 4 mL of chloroform followed by 4 mL of water were added to form a biphasic system. Isolation and analysis of the dried complex was done as described beforehand for the Bligh-Dyer method. UHPLC method: Samples were analyzed on a Shimadzu Nexera-X with a PDA detector. Samples were injected (5 μL) onto a Waters Terra XBridge BEH C8 column (2.5 μm, 4.6x75mm, temperature 25 °C) at a flow rate of 1 mL/min.

[3] = Solubility of ICG HIP complexes in ICell (visual)
Procedure: (§1) For each co-ion, the chloroform phase was isolated and transferred to new glass vials. Chloroform was dried under a gentle flow of nitrogen.
(§2) 1 g of ICell was added to each vial containing the previously isolated ICG HIP complexes. In addition, 1 g of ICell was added to a vial containing 2.5 mg of native ICG.

[4] = Stability of ICG HIP complexes in ICell (HPLC); format: physicochemical; details: ICG complexed with the named co-ion in SuBen:GTO:EtOH (60:25:15) ICell, 7 weeks in the dark at room temperature, percentage AUC of ICG at 280 nm
Procedure: as §1, §2
Stability study: After preparation, ICells were stored at room temperature and protected from light. After 7 weeks, approximately 25 µL of each formulation were taken and dissolved in 500 µL of acetonitrile. The samples were then analyzed by HPLC. HPLC analysis: Samples were analyzed on a Shimadzu Nexera-X HPLC. Samples were injected (5 µL) onto a Waters Terra XBridge BEH C18 column (2.5 µm, 4.6x75mm, temperature 25 °C) at a flow rate of 1 mL/min. The solvent system consisted of mobile phase A (5% MeCN, 0.1% TFA in water) and mobile phase B (0.1% TFA in MeCN). The gradient was 0% B for 1 min, 0 to 100% B in 5 min, 100% B for 4 min, 100% B to 0% B in 0.5 min, 0% B for 1 min. UV detection at 280 nm was used to measure the AUC of ICG and its related degradation products.

[5] = HIP complexation of ICG by method 3 (Bligh-Dyer), judged by colour of the phases; format: physicochemical; details: co-ion:ICG 1:1 molar ratio
Procedure: HIP method 3 (Bligh-Dyer method): ICG (5 mg/mL) was dissolved in a 0.01 M HCI solution. Benethamine, dodecylamine, CTAB and tetraethyl ammonium bromide were used as co-ions. Each co-ion was dissolved in methanol in a 1:1 molar ratio to ICG. In an 8-mL glass vial, 1 mL of chloroform, 2 mL of co-ion solution (methanol), and 1 mL of ICG solution (water) were added in that order (methanol without co-ions was used as a control). The vials was gently shaken (i.e., slowly turned over 2-3 times) and incubated for 45 min at room temperature in the dark. Then 1 mL of water was added followed by 1 mL of chloroform. The vial was gently shaken again and incubated for 45 min at room temperature in the dark. The resulting HIP complex is present in the lower organic phase.
DB36 and ICG are negatively charged molecules, which are very soluble in water, but not in organic solvents such as chloroform. All the used co-ions have a positive charge and they could form hydrophobic ion pairing (HIP) complexes with either DB36 or ICG. When solubilized, DB36 and ICG form dark blue or green solutions, respectively. Thus, successful HIP complexation was assessed by either observing precipitates (for method 1) or a change in coloration in the chloroform phase (for methods 2 and 3). […]

[6] = Effect of co-ions on surface tension of ICell (visual appearance of injected depots); format: physicochemical; details: co-ion alone (2 mM or 10 mM, no ICG) in SuBen:GTH:DMSO or SuBen:GTO:EtOH ICell, in PBS, 7 days at 37°C
Procedure: ICell formulation: A SuBen:GTH:DMSO (60:20:20), SuBen:GTH:DMSO (60:20:15) and a SuBen:GTO:EtOH (60:25:10) ICell were prepared as described in example 4. Effect on surface tension without ICG: TOAB was dissolved in DMSO and EtOH to produce solutions with a concentration of […]. CTAB was dissolved in EtOH to produce solutions with a concentration of […]. 0.03 g of each co-ion solution were individually added to 0.57 g of either a SuBen:GTH:DMSO (60:20:15) or a SuBen:GTO:EtOH (60:25:10) ICell. Thus, the final co-ion concentration in each ICell was 2mM or 10 mM. 50 µL of the previously prepared ICells were injected in glass vials containing 2 mL PBS. The vials were incubated at 37°C during 7 days and the visual appearance of the injected depots was evaluated.
(§3) Chloroform was dried under a gentle flow of nitrogen.
Effect on surface tension with ICG: SuBen:GTH:DMSO (60:20:20) ICell was proportionally added to the previously isolated ICG HIP complexes to obtain formulations with a final ICG concentration of either 0.1 or 2.5 mg/g as described in Table 4. 50 µL of these ICells were injected in glass vials containing 2 mL PBS. The vials were incubated at 37°C during 3 days and the visual appearance of the injected depots was evaluated.

[7] = HIP complexation of SIINFEKL with SDS (HPLC of supernatant); format: physicochemical
Procedure: (1.5 mg/mL) was dissolved in 0.01 M HCI. […] The […] and co-ion solution were mixed in equal volumes, followed by shaking and centrifugation steps as described in method 1 of example 2. The supernatant was removed the content of […] was evaluated by HPLC.
HPLC method: Samples were analyzed on a Shimadzu Nexera-X with PDA. Samples were injected (40 µL) onto a Waters Terra XBridge BEH C8 column (2.5 µm, 4.6x150mm, temperature 25 °C) at a flow rate of 1 mL/min. The solvent system consisted of mobile phase A (5% MeCN, 0.1% TFA in water) and mobile phase B (0.1% TFA in MeCN). The gradient was 0% B for 1.5 min, 0 to 100% B in 7 min, 100% B for 1.5 min, 100% B to 0% B in 0.5 min, 0% B for 1.5 min. […] was quantified by UV at 220 nm.

[8] = Solubility and stability of ICG HIP complex in different solvents (HPLC); format: physicochemical; details: native non-complexed ICG in water, 5 days at 25°C in the dark, HPLC 280 nm
Procedure: as §3
HPLC analysis: Samples were analyzed on a Shimadzu Nexera-X HPLC. […] The solvent system consisted of mobile phase A (5% MeCN, 0.1% TFA in water) and mobile phase B (0.1% TFA in MeCN). The gradient was 0% B for 1 min, 0 to 100% B in 5 min, 100% B for 4 min, 100% B to 0% B in 0.5 min, 0% B for 1 min. UV detection at 280 nm was used to measure the AUC of ICG and its related degradation products.

S. aureus strain S54F9 = experiment: Microbiological assay, Disc Diffusion Assay; format: cell-based, Staphylococcus aureus; details: 24 hours at 37 °C
Procedure: Then, 3 wells were carved out with the use of the broad side of an autoclaved 1 ml pipette tip.
This setup was repeated for three experimental replicates. Each plate was incubated for 24 hours at 37 °C, before inspection.
Then, 3 wells were carved out with the use of the broad side of an autoclaved 1 ml pipette tip. In one well, 0.5 mg linoleic acid was injected as 90 µl 0.22 µm-sterile-filtered dimethyl sulfoxide. In a second well, 90 µl autoclaved phosphate-buffered saline with 0.5 mg vancomycin hydrochloride was injected. […] The plate was incubated for 24 hours at 37 °C, before inspection.

[9] = HIP complexation of gentamicin (HPLC-ELSD of supernatant or aqueous phase); format: physicochemical; details: Bligh-Dyer method, 1:1 charge ratio; gentamicin not detected in aqueous phase
Procedure: HIP complexation via organic-solvent free method: […] A white precipitate was obtained, which corresponded to the HIP complex. The supernatant was removed and its gentamicin content was evaluated by HPLC. […] A sample of the aqueous phase was taken to evaluate its gentamicin content by HPLC. HPLC method: Samples were analyzed on a Shimadzu Nexera-i with an evaporative light scattering detector (ELSD). Samples were injected (5 µL) onto a Waters Terra XBridge BEH C8 column (5 µm, 4.6x150mm, temperature 25 °C) at a flow rate of 1 mL/min.

[10] = remark: listed apart in the source
Procedure: After removing the supernatant, the complex was dissolved in methanol, transferred to a new glass vial and the solvent was dried under a gentle nitrogen flow. […] The chloroform phase was isolated, transferred to a new vial and subsequently chloroform was dried under a gentle flow of nitrogen.

[11] = In vitro release of clindamycin-HIP complexes from ICell into PBS; format: in vitro ADME; details: clindamycin or its HIP complex with the named co-ion, SuBen:GTH:EtOH (60:20:20) ICell, 20 mg/g, PBS 37°C, after 8 days, mean (n=2)
Procedure: ICell formulation: […] […] In vitro release: 50 μL of each ICell were individually injected in 8-mL glass vials containing 2 mL PBS, for which the exact amount of injected ICell was weighed. The vials were incubated at 37 °C and at each sampling point 1 mL of PBS was taken. 1 mL of fresh buffer was added immediately to the vial to replace the taken sample. The samples were then analyzed by HPLC and the concentration of drug in the release media was calculated. UHPLC method: HPLC analyses were done using a Shimadzu Nexera-X UHPLC instrument with a PDA detector. The samples were injected (40 μL) onto a Waters Terra BEH C8 column (2.5μm, 4.6x75mm, temperature 25°C) at a flow rate of 0.8 mL/min.

[12] = ICG or its HIP complex with the named co-ion in SuBen:GTO:EtOH (60:25:15) ICell, about 2.5 mg ICG per 1 g ICell, visual

CCCCCCC/C=C\C(=O)O [C2DA]
solubility in ICell ([1]; clindamycin or its HIP complex with the named co-ion, SuBen:GTH:EtOH (60:20:20) ICell, clindamycin 20 mg/g, visual): easily solubilized | Complexation efficacy Bligh-Dyer method [2]: 80% | Complexation efficacy Modified Bligh-Dyer method [2]: 72%

CCCCCCCCCCCCCCCC[N+](C)(C)C [CTAB]
solubility in ICell [3, 12]: easily solubilized | ICG % AUC [4]: 97.6% | ICG complexed [5]: ~100% | visual appearance of injected ICell depots (surface tension) [6]: had flatten

CCCCCCCCCCCCN [Dodecylamine]
solubility in ICell [3]: easily solubilized | ICG % AUC [4]: 95.3% | ICG complexed [5]: ~100%

CC[C@H](C)[C@H](NC(=O)[C@@H](NC(=O)[C@@H](N)CO)[C@@H](C)CC)C(=O)N[C@@H](CC(N)=O)C(=O)N[C@@H](Cc1ccccc1)C(=O)N[C@@H](CCC(=O)O)C(=O)N[C@@H](CCCCN)C(=O)N[C@@H](CC(C)C)C(=O)O [HIP complex of SIINFEKL with SDS]
solubility in methanol [7]: soluble

CC1(C)C(/C=C/C=C/C=C/C=C2\N(CCCCS(=O)(=O)O)c3ccc4ccccc4c3C2(C)C)=[N+](CCCCS(=O)(=O)[O-])c2ccc3ccccc3c21 [ICG, indocyanine green, reference compound]
solubility in ICell [3, 12]: not soluble | stability [8]: no longer visible in the chromatogram

CCCCC/C=C\C/C=C\CCCCCCCC(=O)O [Linoleic acid]
antimicrobial activity (clearance of S. aureus) (S. aureus strain S54F9; Example 24, wells: 0.5 mg linoleic acid in DMSO, 0.5 mg vancomycin hydrochloride, 45 µl HIP complex + 45 µl PBS): has an antimicrobial effect, but to an extent lesser than vancomycin | solubility in ICell [1]: easily solubilized | Complexation efficacy Bligh-Dyer method [2]: 64% | Complexation efficacy Modified Bligh-Dyer method [2]: 80%

CC[C@H](C)[C@H](NC(=O)[C@@H](NC(=O)[C@@H](N)CO)[C@@H](C)CC)C(=O)N[C@@H](CC(N)=O)C(=O)N[C@@H](Cc1ccccc1)C(=O)N[C@@H](CCC(=O)O)C(=O)N[C@@H](CCCCN)C(=O)N[C@@H](CC(C)C)C(=O)O [SIINFEKL] [reference compound]
solubility in methanol [7]: insoluble

CCCCC(CC)COC(=O)CC(C(=O)OCC(CC)CCCC)S(=O)(=O)O (stereo not shown) [Sodium docusate]
gentamicin complexed [9]: 100% | solubility in ICell [10]: easily solubilized

CCCCCCCC/C=C\CCCCCCCC(=O)[O-].[Na+] [Sodium oleate]
release of clindamycin from the ICell [11]: 96% | Complexation efficacy Bligh-Dyer method [2]: 72% | Complexation efficacy Modified Bligh-Dyer method [2]: 72%

CC[N+](CC)(CC)CC.[Br-] [Tetraethyl ammonium bromide]
ICG % AUC [4]: 96.3%

CC(=O)NC[C@H]1CN(c2ccc(N3CCOCC3)c(F)c2)C(=O)O1 [linezolid, Linezolid]
antimicrobial activity (clearing zone) after release from ICell (S. aureus strain S54F9; Example 23, 50 µl ICell per well (gentamicin-docusate 20 mg/g, Linezolid 15 mg/g in SuBen:GTO:EtOH (60:25:15))): clearing zone
